# Data published in publication PMC4747864 (Molecular cancer therapeutics, 2015).
# Entries after “also recorded” stand apart in the source; their conditions may differ. Where a SMILES comes first, the peptide text is derived from it. Bridges are numbered along the chain shown (N, C = ends). [ ]: non-standard residue; d: D form. dPen = CC(C)(S)[C@@H](N)C(=O)O; βAla = NCCC(=O)O
# Tests used:
# [1] = molecular target: T1, αvβ5 integrin (αvβ5-K562 cells) (Homo sapiens, UniProt P06756+P18084); details: earlier study; cited from earlier work
# [2] = molecular target: T2, αIIbβ3 integrin (αIIbβ3-K562 cells) (Homo sapiens, UniProt P05106+P08514); details: earlier study; cited from earlier work
# [3] = molecular target: T3, α5β1 integrin (parent K562 cells) (Homo sapiens, UniProt P05556+P08648); details: earlier study; cited from earlier work
# [4] = system: glioblastoma U-87MG or melanoma A375M xenograft models; details: in vivo and ex vivo optical imaging, U-87MG or A375M xenograft models; cited from earlier work
# [5] = molecular target: T4, αvβ3 integrin (αvβ3-K562 cells) (Homo sapiens, UniProt P05106+P06756); details: earlier study; cited from earlier work
# [6] = molecular target: αvβ3 integrin (K562/αvβ3+ cells) (Homo sapiens, UniProt P05106+P06756); assay type: binding; details: for decrease (loss) of binding affinity / potency relative to LXW7: versus parent LXW7
# [7] = system: U-87MG glioblastoma cells; assay: Binding to U-87MG glioblastoma cells in vitro; assay type: cell-based
# [8] = molecular target: T4, αvβ3 integrin (αvβ3-K562 cells); assay type: binding; details: 1μM biotinylated LXW64, then streptavidin-PE, flow cytometry
# [9] = molecular target: T3, α5β1 integrin (parent K562 cells); assay type: binding; details: 1μM biotinylated LXW64, then streptavidin-PE, flow cytometry
# [10] = molecular target: T1, αvβ5 integrin (αvβ5-K562 cells); assay type: binding; details: 1μM biotinylated LXW64, then streptavidin-PE, flow cytometry
# [11] = molecular target: T2, αIIbβ3 integrin (αIIbβ3-K562 cells); assay type: binding; details: 1μM biotinylated LXW64, then streptavidin-PE, flow cytometry
compound,measurement,setting,value
"CC(C)[C@H]1NC(=O)[C@@H](CC(=O)O)NC(=O)[C@H](CC(=O)O)NC(=O)CNC(=O)[C@H](CCCNC(=N)N)NC(=O)CNC(=O)[C@H](N)CSSC[C@H](C(N)=O)NC1=O [peptide 1, cGRGDdvc-NH2] (H-[dC]GRGD[dD][dV][dC]-NH2; disulfide 1-8 (inferred); N-terminus assumed)",binding to αvβ5 integrin,[1],weakly
same,binding to αIIbβ3 integrin,[2],weakly
same,binding to α5β1 integrin,[3],no binding
same,liver uptake,[4],low liver uptake
same,tumor uptake,[4],excellent tumor uptake
same,binding to αvβ3 integrin,[5],strongly
"CC(C)[C@H]1NC(=O)[C@@H](CC(=O)O)NC(=O)[C@H](CC(=O)O)NC(=O)CNC(=O)[C@H](CCCNC(=N)N)NC(=O)CNC(=O)[C@H](N)CSSC[C@@H](C(N)=O)NC1=O [peptide 3, cGRGDdvC-NH2] (H-[dC]GRGD[dD][dV]C-NH2; disulfide 1-8 (inferred); N-terminus assumed)",decrease (loss) of binding affinity / potency relative to LXW7,[6],16 fold
"CC(C)[C@H]1NC(=O)[C@@H](CC(=O)O)NC(=O)[C@H](CC(=O)O)NC(=O)CNC(=O)[C@H](CCCNC(=N)N)NC(=O)CNC(=O)[C@@H](N)CSSC[C@H](C(N)=O)NC1=O [peptide 2, CGRGDdvc-NH2] (H-CGRGD[dD][dV][dC]-NH2; disulfide 1-8 (inferred); N-terminus assumed)",decrease (loss) of binding affinity / potency relative to LXW7,[6],10 fold
"CC(C)[C@H]1NC(=O)[C@@H](CC(=O)O)NC(=O)[C@H](CC(=O)O)NC(=O)CNC(=O)[C@H](CCCNC(=N)N)NC(=O)CNC(=O)[C@@H](N)CSSC[C@@H](C(N)=O)NC1=O [peptide 4, CGRGDdvC-NH2] (H-CGRGD[dD][dV]C-NH2; disulfide 1-8 (inferred); N-terminus assumed)",binding affinity compared with LXW7 (in words),[6],complete loss of binding affinity
R4-cGRGDdvc-NH2 [compound 21],binding affinity compared with LXW7 (in words),[6],modest loss of potency
R3-cGRGDdvc-NH2 [compound 20],binding affinity compared with LXW7 (in words),[6],modest loss of potency
"CC(C)[C@H]1NC(=O)[C@@H](CC(=O)O)NC(=O)[C@H](CC(=O)O)NC(=O)CNC(=O)[C@H](CCCNC(=N)N)NC(=O)CCNC(=O)[C@H](N)CSSC[C@H](C(N)=O)NC1=O [peptide 9, c-βala-RGDdvc-NH2] (H-[dC][βAla]RGD[dD][dV][dC]-NH2; disulfide 1-8 (inferred); N-terminus assumed)",decrease (loss) of binding affinity / potency relative to LXW7,[6],11 fold
"CC(C)[C@H]1NC(=O)[C@@H](CC(=O)O)NC(=O)[C@H](CC(=O)O)NC(=O)CNC(=O)[C@H](CCCNC(=N)N)NC(=O)[C@@H](C)NC(=O)[C@H](N)CSSC[C@H](C(N)=O)NC1=O [peptide 8, caRGDdvc-NH2] (H-[dC][dA]RGD[dD][dV][dC]-NH2; disulfide 1-8 (inferred); N-terminus assumed)",decrease (loss) of binding affinity / potency relative to LXW7,[6],7.8 fold
"CC(C)[C@H]1NC(=O)[C@@H](CC(=O)O)NC(=O)[C@H](CC(=O)O)NC(=O)CNC(=O)[C@H](CCCNC(=N)N)NC(=O)CNC(=O)[C@H](N)CSSC(C)(C)[C@H](C(N)=O)NC1=O [peptide 6, cGRGDdv-DPen-NH2] (H-[dC]GRGD[dD][dV][dPen]-NH2; disulfide 1-8 (inferred); N-terminus assumed)",decrease (loss) of binding affinity / potency relative to LXW7,[6],4 to 10 fold
"N=C(N)NCCC[C@@H]1NC(=O)CNC(=O)[C@H](N)CSSC[C@H](C(N)=O)NC(=O)[C@@H](Cc2cccc3ccccc23)NC(=O)[C@@H](CC(=O)O)NC(=O)[C@H](CC(=O)O)NC(=O)CNC1=O [peptide 40, cGRGDd-DNal1-c-NH2]",binding to U-87MG glioblastoma cells,[7],binding strongly
same,binding to αvβ3-K562 cells,[8],strongly; also recorded: significant positive binding
same,binding to parent K562 cells (α5β1),[9],no binding
same,binding to αvβ5-K562 cells,[10],weakly
same,binding to αIIbβ3-K562 cells,[11],weakly
same,higher binding affinity than LXW7,[6]; versus LXW7,6.6 fold
"CC(C)[C@H]1NC(=O)[C@@H](CC(=O)O)NC(=O)[C@H](CC(=O)O)NC(=O)CNC(=O)[C@H](CCCNC(=N)N)NC(=O)CNC(=O)[C@H](N)C(C)(C)SSC(C)(C)[C@H](C(N)=O)NC1=O [peptide 7, DPen-GRGDdv-DPen-NH2] (H-[dPen]GRGD[dD][dV][dPen]-NH2; disulfide 1-8 (inferred); N-terminus assumed)",decrease (loss) of binding affinity / potency relative to LXW7,[6],4 to 10 fold
"CC(C)[C@H]1NC(=O)[C@@H](CC(=O)O)NC(=O)[C@H](CC(=O)O)NC(=O)CNC(=O)[C@H](CCCNC(=N)N)NC(=O)CNC(=O)[C@H](N)C(C)(C)SSC[C@H](C(N)=O)NC1=O [peptide 5, DPen-GRGDdvc-NH2] (H-[dPen]GRGD[dD][dV][dC]-NH2; disulfide 1-8 (inferred); N-terminus assumed)",decrease (loss) of binding affinity / potency relative to LXW7,[6],4 to 10 fold
